Values of other authors in US20060281715A1, “Phosphates of secondary alcohols” (priority 2003, published 2006).
Values belong to the compound of their own block, whether it stands above or below them.

Key:
[1] = major metabolite
[2] = oral administration
seratonin uptake = conditions: enantiomers of venlafaxine
noradrenaline uptake = conditions: enantiomers of venlafaxine

Structure (SMILES): COc1ccc(C(CN(C)C)C2(O)CCCCC2)cc1 (stereo not drawn) [Venlafaxine]
- time to mean peak plasma concentrations (following single 25 to 150 mg doses): approximately 2.4 hours

Structure (SMILES): CN(C)CC(c1ccc(O)cc1)C1(O)CCCCC1 (stereo not drawn) [O-desmethylvenlafaxine]
- half-life (calculated): 11 h
- potency compared with venlafaxine [1]: equally potent

- time to peak plasma levels [2]: about an hour and a half
Structure (SMILES): CC[C@H](C)C(=O)O[C@H]1C[C@H](O)C=C2C=C[C@H](C)[C@H](CC[C@@H](O)C[C@@H](O)CC(=O)O)[C@H]21 [Pravastatin]

Structure (SMILES): COc1ccc(C(CN(C)C)C2(O)CCCCC2)cc1 (single isomer, unassigned) [S-enantiomer]
- potency as inhibitor of seratonin uptake, compared with other enantiomer (seratonin uptake): more potent

Structure (SMILES): COc1ccc(C(CN(C)C)C2(O)CCCCC2)cc1 (single isomer, unassigned) [R-enantiomer]
- potency as inhibitor of noradrenaline uptake, compared with other enantiomer (noradrenaline uptake): more potent
